Measurements reported in patent US8735584B2 (Merck Patent GmbH, priority 2008, dated 2014).

Molecular target: T1, GST-Aurora A (Homo sapiens, UniProt O14965)
T1 construct: N-terminal GST fusion with full length Aurora A (1-403 amino acids); purchased Carna Biosciences 05-101
T1 sequence (O14965 1-403): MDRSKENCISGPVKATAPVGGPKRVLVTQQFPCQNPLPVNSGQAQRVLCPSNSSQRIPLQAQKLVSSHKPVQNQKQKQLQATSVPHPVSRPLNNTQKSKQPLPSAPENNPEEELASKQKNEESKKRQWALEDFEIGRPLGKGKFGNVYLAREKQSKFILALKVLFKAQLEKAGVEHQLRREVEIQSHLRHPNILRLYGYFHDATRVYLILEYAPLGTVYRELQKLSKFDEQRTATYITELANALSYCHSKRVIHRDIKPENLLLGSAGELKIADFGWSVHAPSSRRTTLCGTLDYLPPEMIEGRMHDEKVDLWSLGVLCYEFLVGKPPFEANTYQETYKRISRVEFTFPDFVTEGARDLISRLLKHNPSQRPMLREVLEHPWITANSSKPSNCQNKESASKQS
Assay: Aurora A IC50, Caliper LC3000 mobility shift assay
Format: biochemical
Conditions: LC3000 method; 15 uM ATP (the KM value); read-out: Aurora Kinase A Activity (IC50)
Procedure, shortened: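 Readout: percent conversion of FITC-LRRASLG (1 uM) to phosphopeptide, resolved electrophoretically on a Caliper LC3000, fitted against inhibitor concentration for IC50. Reaction: N-terminal GST full-length Aurora A, ATP at its KM (15 uM), pH 7.5 HEPES with MgCl2/DTT, 25 C for 90 min.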

- IC50: > 0.1 µM
Compound: O=c1[nH]c2ncccc2c2cc(Nc3cccc(F)c3)ccc12 [Example 31, 9-(3-Fluoro-phenylamino)-5H-benzo[c][1,8]naphthyridin-6-one]
